{"source": "patent US20240391881A1", "about": "“PHARMACEUTICAL USE AND PREPARATION METHOD FOR SUBSTITUTED HETEROARYL PHTHALAZINE DERIVATIVE” (ORIGIANT PHARMACEUTICAL CO., LTD., priority 2021, published 2024)"}
{"biological_target": "T1, NLRP3 inflammasomes (Homo sapiens, UniProt Q96P20)", "T1 construct": "endogenous in cells; host or cells: THP-1 human monocytic cells, PMA-differentiated, LPS-primed, nigericin-stimulated", "T1 sequence (Q96P20 whole entry)": "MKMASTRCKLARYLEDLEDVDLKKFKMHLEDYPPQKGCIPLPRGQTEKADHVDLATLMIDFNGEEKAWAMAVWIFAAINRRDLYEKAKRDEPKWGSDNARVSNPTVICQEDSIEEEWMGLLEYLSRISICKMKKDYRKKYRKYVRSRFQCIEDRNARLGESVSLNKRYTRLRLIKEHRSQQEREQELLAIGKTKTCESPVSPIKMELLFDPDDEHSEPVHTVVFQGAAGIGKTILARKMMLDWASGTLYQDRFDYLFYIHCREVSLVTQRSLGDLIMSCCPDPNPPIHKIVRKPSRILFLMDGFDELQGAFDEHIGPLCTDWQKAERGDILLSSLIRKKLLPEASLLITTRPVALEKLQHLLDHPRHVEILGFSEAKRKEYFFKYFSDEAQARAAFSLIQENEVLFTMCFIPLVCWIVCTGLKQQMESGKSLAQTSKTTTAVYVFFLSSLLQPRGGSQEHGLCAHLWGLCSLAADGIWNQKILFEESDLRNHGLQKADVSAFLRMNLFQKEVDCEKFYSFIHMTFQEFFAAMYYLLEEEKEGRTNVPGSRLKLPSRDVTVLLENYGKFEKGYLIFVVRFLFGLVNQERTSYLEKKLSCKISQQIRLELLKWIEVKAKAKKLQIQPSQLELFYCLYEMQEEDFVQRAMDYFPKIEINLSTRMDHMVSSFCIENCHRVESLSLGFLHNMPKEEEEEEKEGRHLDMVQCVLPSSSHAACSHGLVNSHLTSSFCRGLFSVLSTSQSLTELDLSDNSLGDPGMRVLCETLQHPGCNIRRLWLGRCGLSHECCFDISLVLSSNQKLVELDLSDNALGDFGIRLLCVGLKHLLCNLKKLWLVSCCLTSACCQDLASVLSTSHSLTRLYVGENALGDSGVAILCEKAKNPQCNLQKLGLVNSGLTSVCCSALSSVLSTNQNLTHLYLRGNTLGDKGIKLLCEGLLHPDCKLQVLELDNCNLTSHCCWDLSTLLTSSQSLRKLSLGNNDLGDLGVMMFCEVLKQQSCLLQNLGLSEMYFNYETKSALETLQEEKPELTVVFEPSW", "assay": "THP-1 pyroptosis test (cell pyroptosis test)", "format": "cell-based", "settings": "THP-1 cells differentiated with PMA, LPS stimulation, 10 μM nigericin, drug 0.001-10 μM, MTT absorbance 562 nm", "description": "In vitro activity screening was performed on small molecule compounds targeting inhibition on NLRP3 inflammasomes using THP-1 human monocytic cells (THP-1). THP-1 can be induced to differentiate into macrophages by phorbol ester (PMA), and the macrophages M1 can be induced to polarize by lipopolysaccharide (LPS) to release cytokines such as TNF-α, and IL-6, so as to establish a typical inflammatory model.\nTHP-1 cells in a logarithmic growth phase were collected to prepare a 1×10^6 cells/mL cell suspension, PMA was added to achieve a final concentration of 300 ng/mL in the cell suspension, then 1×10^5 cells were inoculated to each well of a 96-well plate, and the cells were cultured in a 37° C., 5% CO2 cell incubator for 24 hours and induced to differentiate into macrophages.\nThe next day, LPS was added to stimulate and induce the cells to produce an inflammatory model. […] In the 200 μL system of the 96-well plate, the final concentration of each drug was 0.001-10 μM, and the final concentration of the nigericin was 10 μM.\nCell apoptosis protection rate=[(X−C0)/(C−C0)]×100%\nwherein, C, C0 and X represent average absorbance values of the normal cell group, the blank control group, and the drug treatment group, respectively. Finally, cell survival curves were fitted by Graphpad Prism 5.0 software and EC50 values of the compounds to be tested in inhibiting pyroptosis caused by NLRP3 inflammasomes were calculated.", "units": {"EC50": "nM"}}
{"smiles": "Cc1ccc(-c2nnc(N[C@@H]3CCCN(C)C3)c3cnn(C)c23)c(O)c1", "note": "[Compound 65]", "EC50": "< 20"}
{"smiles": "Cn1ncc2c(NCCN3CCOCC3)nnc(-c3ccc(C(F)(F)F)cc3O)c21", "note": "[Compound 73]", "EC50": "500 to 1000"}
{"smiles": "CCCCNc1nnc(-c2ccc(C(F)(F)F)cc2O)c2ccccc12", "note": "[Compound 11, 2-(4-(butylamino)phthalazin-1-yl)-5-(trifluoromethyl)phenol]", "EC50": "> 1000"}
{"smiles": "CN1CCC(Nc2nnc(-c3ccc(F)cc3O)c3c2cnn3C)CC1", "note": "[Compound 70]", "EC50": "> 1000"}
{"smiles": "Cc1ccc2c(-c3ccc(C(F)(F)F)cc3O)nnc(N[C@@H]3CCCN(C)C3)c2n1", "note": "[Compound 52, (R)-2-(2-methyl-8-((1-methylpiperidin-3-yl)amino)pyridino[2,3-d]pyridazin-5-yl)-5-(trifluoromethyl)phenol]", "EC50": "< 20"}
{"smiles": "CN1CC[C@@H](Nc2nnc(-c3ccc(C(F)(F)F)cc3O)c3ccccc23)C1", "note": "[Compound 24, (R)-2-(4-((1-methylpyrrolidin-3-yl)amino)phthalazin-1-yl)-5-(trifluoromethyl)phenol]", "EC50": "< 20"}
{"smiles": "COc1ccc2c(-c3ccc(C(F)(F)F)cc3O)nnc(N[C@@H]3CCCN(C)C3)c2c1", "note": "[Compound 6, (R)-2-(6-methoxy-4-((1-methylpiperidin-3-yl)amino)phthalazin-1-yl)-5-(trifluoromethyl)phenol]", "EC50": "< 20"}
{"smiles": "Cc1cnc2c(N[C@@H]3CCCN(C)C3)nnc(-c3ccc(OC(F)(F)F)cc3O)c2c1", "note": "[Compound 61, 2-(3-methyl-8-{[(3R)-1-methylpiperidin-3-yl]amino}pyridino[2,3-d]pyridazin-5-yl)-5-(trifluoromethoxy)phenol]", "EC50": "< 20"}
{"smiles": "Cn1cnc2c(O[C@@H]3CCCN(CC(F)(F)F)C3)nnc(-c3ccc(C(F)(F)F)cc3O)c21", "note": "[Compound 84]", "EC50": "> 1000"}
{"smiles": "CN1CCC(Nc2nnc(-c3ccc(C(F)(F)F)cc3O)c3c2cnn3C)CC1", "note": "[Compound 68]", "EC50": "500 to 1000"}
{"smiles": "CC(=O)N1CCC[C@@H](Nc2nnc(-c3ccc(C(F)(F)F)cc3O)c3ccccc23)C1", "note": "[Compound 32, (R)-1-(3-((4-(2-hydroxy-4-(trifluoromethyl)phenyl)phthalazin-1-yl)amino)piperidin-1-yl)ethane-1-one]", "EC50": "20 to 100"}
{"smiles": "Oc1cc(C(F)(F)F)ccc1-c1nnc(NCCN2CCOCC2)c2ccccc12", "note": "[Compound 21, 2-(4-((2-morpholinylethyl)amino)phthalazin-1-yl)-5-(trifluoromethyl)phenol]", "EC50": "> 1000"}
{"smiles": "CN(C)[C@H]1CC[C@H](Nc2nnc(-c3ccc(C(F)(F)F)cc3O)c3ccccc23)CC1", "note": "[Compound 18]", "EC50": "500 to 1000"}
{"smiles": "Cc1ccc(-c2nnc(N[C@@H]3CCCN(C)C3)c3c2cnn3C)c(O)c1", "note": "[Compound 64]", "EC50": "< 20"}
{"smiles": "Cc1cnc2c(N[C@@H]3CCCN(C)C3)nnc(-c3ccc(C(F)(F)F)cc3O)c2c1", "note": "[Compound 48, 2-(3-methyl-8-{[(3R)-1-methylpiperidin-3-yl]amino}pyridino[2,3-d]pyridazin-5-yl)-5-(trifluoromethyl)phenol]", "EC50": "< 20"}
{"smiles": "Cn1cnc2c(NCCN3CCOCC3)nnc(-c3ccc(F)cc3O)c21", "note": "[Compound 82]", "EC50": "> 1000"}
{"smiles": "Cc1cnc2c(-c3ccc(C(F)(F)F)cc3O)nnc(N[C@@H]3CCCN(C)C3)c2c1", "note": "[Compound 49, 2-(3-methyl-5-{[(3R)-1-methylpiperidin-3-yl]amino}pyridino[2,3-d]pyridazin-8-yl)-5-(trifluoromethyl)phenol]", "EC50": "< 20"}
{"smiles": "CN1CCC[C@@H](Nc2nnc(-c3ccc(C(F)(F)F)cc3C(F)F)c3c2cnn3C)C1", "note": "[Compound 88]", "EC50": "20 to 100"}
{"smiles": "CN1CCC[C@@H](Nc2nnc(-c3ccc(C(F)(F)F)cc3O)c3c2nc(C(F)(F)F)n3C)C1", "note": "[Compound 58]", "EC50": "< 20"}
{"smiles": "Cc1ccc2c(-c3ccc(C(F)(F)F)cc3O)nnc(N[C@@H]3CCCN(C)C3)c2c1", "note": "[Compound 4, (R)-2-(6-methyl-4-((1-methylpiperidin-3-yl)amino)phthalazin-1-yl)-5-(trifluoromethyl)phenol]", "EC50": "< 20"}
{"smiles": "CN1CCC[C@@H](Nc2nnc(-c3ccccc3O)c3ccccc23)C1", "note": "[Compound 31, (R)-2-(4-((1-methylpiperidin-3-yl)amino)phthalazin-1-yl)phenol]", "EC50": "500 to 1000"}
{"smiles": "Cn1cnc2c(NCCN3CCOCC3)nnc(-c3ccc(C(F)(F)F)cc3O)c21", "note": "[Compound 76]", "EC50": "> 1000"}
{"smiles": "CCN1CCC[C@H]1CNc1nnc(-c2ccc(C(F)(F)F)cc2O)c2ccccc12", "note": "[Compound 28]", "EC50": "100 to 500"}
{"smiles": "CN1CCC[C@@H](Nc2nnc(-c3ccc(C(F)(F)F)cc3O)c3c2ncn3C)C1", "note": "[Compound 37, (R)-2-(1-methyl-4-((1-methylpiperidin-3-yl)amino)-1H-imidazo[4,5-d]pyridazin-7-yl)-5-(trifluoromethyl)phenol]", "EC50": "< 20"}
{"smiles": "C[C@@H](Nc1nnc(-c2ccc(C(F)(F)F)cc2O)c2ccccc12)c1ccc(F)cc1", "note": "[Compound 9, (R)-2-(4-((1-(4-fluorophenyl)ethyl)amino)phthalazin-1-yl)-5-(trifluoromethyl)phenol]", "EC50": "> 1000"}
{"smiles": "CCc1cnc2c(N[C@@H]3CCCN(C)C3)nnc(-c3ccc(C(F)(F)F)cc3O)c2c1", "note": "[Compound 50, (R)-2-(3-ethyl-8-((1-methylpiperidin-3-yl)amino)pyridino[2,3-d]pyridazin-5-yl)-5-(trifluoromethyl)phenol]", "EC50": "< 20"}
{"smiles": "CCN1CCC[C@@H]1CNc1nnc(-c2ccc(C(F)(F)F)cc2O)c2ccccc12", "note": "[Compound 27, (R)-2-(4-(((1-ethylpyrrolidin-2-yl)methyl)amino)phthalazin-1-yl)-5-(trifluoromethyl)phenol]", "EC50": "500 to 1000"}
{"smiles": "CN1CCC[C@@H](Nc2nnc(-c3ccc(OC(F)(F)F)cc3O)c3ccccc23)C1", "note": "[Compound 41, (R)-2-(4-((1-methylpiperidin-3-yl)amino)phthalazin-1-yl)-5-(trifluoromethoxy)phenol]", "EC50": "< 20"}
{"smiles": "CN1CCC[C@@H](Nc2nnc(-c3ccc(C(F)(F)F)cc3O)c3c2cnn3C)C1", "note": "[Compound 63, (R)-2-(1-methyl-4-((1-methylpiperidin-3-yl)amino)-1H-pyrazolo[3,4-d]pyridazin-7-yl)-5-(trifluoromethyl)phenol]", "EC50": "< 20"}
{"smiles": "CN1CCC[C@@H](Nc2nnc(-c3ccc(C(F)(F)F)cc3O)c3cc(F)ccc23)C1", "note": "[Compound 16, 2-(7-fluoro-4-{[(3R)-1-methylpiperidin-3-yl]amino}phthalazin-1-yl)-5-(trifluoromethyl)phenol]", "EC50": "< 20"}
{"smiles": "CN1CC[C@@H](Oc2nnc(-c3ccc(C(F)(F)F)cc3O)c3c2ncn3C)C1", "note": "[Compound 85]", "EC50": "> 1000"}
{"smiles": "Cc1ccc(-c2nnc(N[C@@H]3CCCN(C)C3)c3ncc(C)cc23)c(O)c1", "note": "[Compound 60, 5-methyl-2-(3-methyl-8-{[(3R)-1-methylpiperidin-3-yl]amino}pyridino[2,3-d]pyridazin-5-yl)phenol]", "EC50": "< 20"}
{"smiles": "CN1CCC[C@@H](Nc2nnc(-c3ccc(C(F)(F)F)cc3O)c3cnn(C)c23)C1", "note": "[Compound 62, (R)-2-(1-methyl-7-((1-methylpiperidin-3-yl)amino)-1H-pyrazolo[3,4-d]pyridazin-4-yl)-5-(trifluoromethyl)phenol]", "EC50": "< 20"}
{"smiles": "Oc1cc(C(F)(F)F)ccc1-c1nnc(N[C@@H]2CCc3ncccc32)c2ccccc12", "note": "[Compound 29, (R)-2-(4-((6,7-dihydro-5H-cyclopenta[b]pyridin-5-yl)amino)phthalazin-1-yl)-5-(trifluoromethyl)phenol]", "EC50": "20 to 100"}
{"smiles": "CN(C)[C@H]1CC[C@@H](Nc2nnc(-c3ccc(C(F)(F)F)cc3O)c3ccccc23)CC1", "note": "[Compound 19]", "EC50": "500 to 1000"}
{"smiles": "Cn1cnc2c(-c3ccc(C(F)(F)F)cc3O)nnc(NCCN3CCOCC3)c21", "note": "[Compound 77]", "EC50": "> 1000"}
{"smiles": "Cn1cnc2c(N[C@H]3CCc4ncccc43)nnc(-c3ccc(C(F)(F)F)cc3O)c21", "note": "[Compound 78]", "EC50": "> 1000"}
{"smiles": "C[C@H](Nc1nnc(-c2ccc(C(F)(F)F)cc2O)c2ccccc12)c1ccc(F)cc1", "note": "[Compound 10, (S)-2-(4-((1-(4-fluorophenyl)ethyl)amino)phthalazin-1-yl)-5-(trifluoromethyl)phenol]", "EC50": "> 1000"}
{"smiles": "Oc1cc(C(F)(F)F)ccc1-c1nnc(N[C@H]2CCc3ncccc32)c2ccccc12", "note": "[Compound 30, (S)-2-(4-((6,7-dihydro-5H-cyclopenta[b]pyridin-5-yl)amino)phthalazin-1-yl)-5-(trifluoromethyl)phenol]", "EC50": "20 to 100"}
{"smiles": "CN1CCC[C@@H]1CNc1nnc(-c2ccc(C(F)(F)F)cc2O)c2ccccc12", "note": "[Compound 26]", "EC50": "500 to 1000"}
{"smiles": "CN1CCC[C@@H](Nc2nnc(-c3cc(F)ccc3O)c3ccccc23)C1", "note": "[Compound 46, (R)-4-fluoro-2-(4-((1-methylpiperidin-3-yl)amino)phthalazin-1-yl)phenol]", "EC50": "20 to 100"}
{"smiles": "Cn1cnc2c(N[C@H]3CCCc4ncccc43)nnc(-c3ccc(C(F)(F)F)cc3O)c21", "note": "[Compound 79]", "EC50": "> 1000"}
{"smiles": "CN1CCC[C@@H](Nc2nnc(-c3ccc(F)cc3O)c3ccccc23)C1", "note": "[Compound 44, (R)-5-fluoro-2-(4-((1-methylpiperidin-3-yl)amino)phthalazin-1-yl)phenol]", "EC50": "20 to 100"}
{"smiles": "Cc1ccc(-c2nnc(N[C@@H]3CCCN(C)C3)c3ccccc23)c(O)c1", "note": "[Compound 40, (R)-5-methyl-2-(4-((1-methylpiperidin-3-yl)amino)phthalazin-1-yl)phenol]", "EC50": "< 20"}
{"smiles": "Cc1ccc(-c2nnc(NCCN3CCOCC3)c3c2cnn3C)c(O)c1", "note": "[Compound 74]", "EC50": "> 1000"}
